{"source": "patent US20240277742A1", "about": "“TRANSLATION INHIBITOR WITHOUT OCCUPYING RIBOSOME RESOURCES AS ANTI-TUMOR DRUG” (CHI BIOTECH CO., LTD., priority 2022, published 2024)", "key": {"HBE cells [1]": {"test_system": "HBE cells", "assay": "Transwell migration assay", "format": "cell-based, human", "settings": "20 μg/mL, vs blank control", "description": "(§1) Cell migration, cell invasion, cell apoptosis, cell colony formation and cytotoxicity experiments were carried out using methods well known to those skilled in the art. […] (1) Cell migration: The Transwell migration assay was carried out to test the migration ability of HBE, A549 and H1299 cells passing pores before and after treatment. The final concentration of methyl aurintricarboxylate was 20 μg/mL."}, "A549 cells [2]": {"test_system": "A549 cells", "assay": "Transwell migration assay", "format": "cell-based", "settings": "A549, 20 μg/mL, vs blank control", "description": "as §1"}, "H1299 cells [3]": {"test_system": "H1299 cells", "assay": "Transwell migration assay", "format": "cell-based", "settings": "H1299, 20 μg/mL, vs blank control", "description": "as §1"}, "A549 cells [4]": {"test_system": "A549 cells", "assay": "Transwell invasion assay", "format": "cell-based", "settings": "A549, 20 μg/mL, vs blank control", "description": "(§2) Cell migration, cell invasion, cell apoptosis, cell colony formation and cytotoxicity experiments were carried out using methods well known to those skilled in the art. […] (2) Cell invasion: Transwell invasion assay was carried out on HBE, A549 and H1299 cells treated with or without methyl aurintricarboxylate (final concentration 20 μg/mL)."}, "H1299 cells [5]": {"test_system": "H1299 cells", "assay": "Transwell invasion assay", "format": "cell-based", "settings": "H1299, 20 μg/mL, vs blank control", "description": "as §2"}, "HBE cells [6]": {"test_system": "HBE cells", "assay": "Cell apoptosis, Annexin V labelling", "format": "cell-based, human", "settings": "HBE, 10, 20, 40 μg/mL", "description": "(§3) Cell migration, cell invasion, cell apoptosis, cell colony formation and cytotoxicity experiments were carried out using methods well known to those skilled in the art. […] (3) Cell apoptosis: Cells were fluorescently labeled using Annexin V, and the occurrence of cell apoptosis was tested under a fluorescence microscopy or on a flow cytometer. […] As the concentration of methyl aurintricarboxylate increases (final concentration: 10 μg/mL, 20 μg/mL, 40 μg/mL), the percentage of apoptosis of cancer cells increases. The percentage of apoptosis of cancer cells is positively correlated with the concentration of methyl aurintricarboxylate. Under the same experimental conditions, the onset concentration of aurintricarboxylic acid (0.25-0.5 mg/mL) is 12.5 to 25 times that of methyl aurintricarboxylate."}, "A549 cells [7]": {"test_system": "A549 cells", "assay": "Cell apoptosis, Annexin V labelling", "format": "cell-based", "settings": "A549, 10, 20, 40 μg/mL, increases with concentration", "description": "as §3"}, "H1299 cells [8]": {"test_system": "H1299 cells", "assay": "Cell apoptosis, Annexin V labelling", "format": "cell-based", "settings": "H1299, 10, 20, 40 μg/mL, increases with concentration", "description": "as §3"}, "A549 cells [9]": {"test_system": "A549 cells", "assay": "Agar colony formation assay", "format": "cell-based", "settings": "A549, 20 μg/mL", "description": "(§4) Cell migration, cell invasion, cell apoptosis, cell colony formation and cytotoxicity experiments were carried out using methods well known to those skilled in the art. […] (4) Cell colony formation: Agar colony formation assay was carried out on A549 and H1299 cells that were untreated and treated with methyl aurintricarboxylate (final concentration 20 μg/mL)."}, "H1299 cells [10]": {"test_system": "H1299 cells", "assay": "Agar colony formation assay", "format": "cell-based", "settings": "H1299, 20 μg/mL", "description": "as §4"}, "[11]": {"test_system": "ES-2 human ovarian cancer cell line", "assay": "Apoptosis by Annexin V flow cytometry assay", "format": "cell-based", "description": "(§5) Apoptosis assay was carried out using human normal fibroblasts (primary culture) as normal controls and ES-2 human ovarian cancer cell line as cancer cells. […] (c) Apoptosis was tested by Annexin V flow cytometry assay. In the figure, cells in the area Q1 are non-apoptotic cells, cells in the area Q3 are early apoptotic (the key area for observing apoptosis), and cells in the area Q2 are late apoptotic, including some necrotic cells."}, "[12]": {"test_system": "human normal fibroblasts (primary culture)", "assay": "Apoptosis by Annexin V flow cytometry assay", "format": "cell-based", "settings": "20 μg/mL to 50 μg/mL, 48 h", "description": "as §5"}, "[13]": {"test_system": "HCCLM3 liver cancer cells", "assay": "Cell proliferation by CCK-8", "format": "cell-based", "settings": "HCCLM3, 50 μg/mL or above, dose-effect relationship", "description": "(§6) The Chinese liver cancer cell lines HCCLM3 and MHCC97H were taken, and cell proliferation was tested with the addition of methyl aurintricarboxylate. […] (b) A methyl aurintricarboxylate solution was added to the culture medium and the final concentrations of methyl aurintricarboxylate reached 10 μg/mL, 20 μg/mL, 50 μg/mL, 80 μg/mL and 120 μg/mL, respectively. The cells were further incubated for […] before sampling. (c) Cell proliferation was tested by CCK-8 (Cell Counting Kit-8)."}, "[14]": {"test_system": "MHCC97H liver cancer cells", "assay": "Cell proliferation by CCK-8", "format": "cell-based", "settings": "50 μg/mL or above, dose-effect relationship", "description": "as §6"}, "ribosomes": {"test_system": "ribosomes", "assay": "Sucrose density ultracentrifugation (polysome profiling) of drug-treated cell lysates", "format": "cell-based", "settings": "methyl aurintricarboxylate 50 μg/mL; Harringtonin 10 μg/mL; Kasugamycin 10 μg/mL; Pateamine A 2 μM; Hippuristanol 1 μM", "description": "Example 2 Proof that methyl aurintricarboxylate, Kasugamycin and Hippuristanol are all translation inhibitors without occupying ribosome resources Using methods well known to those skilled in the art, sucrose density ultracentrifugation (polysome profiling) was carried out to measure polysomes. Ultracentrifugation was performed on normal cell lysates and drug-treated cell lysates at 15-50% sucrose density gradient, the solution was pumped out slowly, and OD260 nm (260 nm Optical Density) was measured. In FIG. 2A, the black line, gray solid line and gray dashed line are the experimental curves of normal cells, cells treated with methyl aurintricarboxylate (concentration 50 μg/mL) and cells treated with Harringtonin (concentration 10 μg/mL) respectively. In FIG. 2B, the gray solid line, gray dashed line, and black dotted line are the experimental curves of cells treated with Kasugamycin (concentration 10 μg/mL), Pateamine A (concentration 2 μM), and Hippuristanol (concentration 1 μM), respectively. The peak heights of the curves are related to concentration."}, "[15]": {"test_system": "human breast cancer cell line MDA-MB-468", "assay": "Cell proliferation by sulforhodamine B assay", "format": "cell-based", "settings": "MDA-MB-468, 1 mg/L", "description": "The human breast cancer cell line MDA-MB-468 was cultured, 1 mg/L Kasugamycin was then added, and cell proliferation was measured by the sulforhodamine B assay well known in the art (see Qin et al., BAPI promotes breast cancer cell proliferation and metastasis by deubiquitinating KLF5, Nature Communications 6:8471)."}, "H1299 lung cancer cells": {"test_system": "H1299 lung cancer cells", "assay": "Nude-mouse lung cancer xenograft model, tumor diameter", "format": "in vivo, nude mice", "settings": "gavage once, 10 μg/kg, days 1, 3, 5", "description": "Using techniques well known in the art, the tumor inhibition assay of Kasugamycin was carried out on a nude-mouse xenograft model. Nude mice were subcutaneously injected with H1299 lung cancer cells. After the tumors formed, kasugamycin was administered (by gavage) once at a dose of 10 μg/kg. On days 1, 3, and 5, the tumor diameters of the nude mice were measured in vivo."}, "[16]": {"test_system": "human breast cancer cell line MDA-MB-468", "assay": "Transwell migration assay", "format": "cell-based", "settings": "MDA-MB-468, 50 nM, 24 h", "description": "(§7) The human breast cancer cell line MDA-MB-468 was incubated and 50 nM Hippuristanol was then added. The well-known Transwell migration and invasion assays were carried out. 100,000 cells were added to the Transwell chamber, migration/invasion was carried out for 24 h, and crystal violet staining was performed."}, "[17]": {"test_system": "human breast cancer cell line MDA-MB-468", "assay": "Transwell invasion assay", "format": "cell-based", "settings": "MDA-MB-468, 50 nM, 24 h", "description": "as §7"}, "A549 lung cancer cells": {"test_system": "A549 lung cancer cells", "assay": "Nude-mouse lung cancer xenograft model, tumor diameter", "format": "in vivo, nude mice", "settings": "gavage, daily dose 10 mg/kg, days 1, 3, 5", "description": "Using techniques well known in the art, the tumor inhibition assay of Hippuristanol was carried out on a nude-mouse xenograft model. Nude mice were subcutaneously injected with A549 lung cancer cells. After the tumors formed, Hippuristanol was administered by gavage once at a daily dose of 10 mg/kg. On days 1, 3, and 5, the tumor diameters of the nude mice were measured in vivo."}, "[18]": {"test_system": "cancer cells (A549 and H1299)", "assay": "Cell apoptosis, onset concentration comparison under the same conditions", "format": "cell-based", "settings": "same experimental conditions as methyl aurintricarboxylate", "description": "as §3"}, "lung cancer A549 cells": {"test_system": "lung cancer A549 cells", "settings": "cisplatin concentration adopted (50 μM), from reported procedure; cited from earlier work"}}}
{"compound": "COC(=O)c1cc(/C(=C2/C=CC(=O)C(C(=O)O)=C2)c2ccc(O)c(C(=O)O)c2)ccc1O", "note": "[methyl aurintricarboxylate, Methyl aurintricarboxylate]", "values": [{"measurement": "cell migration", "setting": "HBE cells [1]", "value": "little effect"}, {"measurement": "cell migration", "setting": "A549 cells [2]", "value": "significantly inhibits the metastasis ability"}, {"measurement": "cell migration", "setting": "H1299 cells [3]", "value": "significantly inhibits the metastasis ability"}, {"measurement": "cell invasion", "setting": "A549 cells [4]", "value": "significantly inhibits the invasion ability"}, {"measurement": "cell invasion", "setting": "H1299 cells [5]", "value": "significantly inhibits the invasion ability"}, {"measurement": "cell apoptosis", "setting": "HBE cells [6]", "value": "will not induce apoptosis"}, {"measurement": "cell apoptosis", "setting": "A549 cells [7]", "value": "will induce apoptosis"}, {"measurement": "cell apoptosis", "setting": "H1299 cells [8]", "value": "will induce apoptosis"}, {"measurement": "number of colonies/1000 cells", "setting": "A549 cells [9]", "value": "significantly reduced"}, {"measurement": "number of colonies/1000 cells", "setting": "H1299 cells [10]", "value": "significantly reduced"}, {"measurement": "Percentage of late apoptotic and necrotic cells", "setting": "[11]; 10 μg/mL, 48 h", "value": 29.1, "unit": "%"}, {"measurement": "late apoptotic+necrotic cells", "setting": "[11]; 20 μg/mL or above, no obvious dose-effect relationship", "value": "do not increase significantly"}, {"measurement": "Percentage of late apoptotic and necrotic cells", "setting": "[11]; 20 μg/mL, 48 h", "value": 17.2, "unit": "%"}, {"measurement": "Percentage of late apoptotic and necrotic cells", "setting": "[11]; 50 μg/mL, 48 h", "value": 23.0, "unit": "%"}, {"measurement": "Percentage of late apoptotic and necrotic cells", "setting": "[11]; 120 μg/mL, 48 h", "value": 22.6, "unit": "%"}, {"measurement": "apoptosis", "setting": "[11]; ES-2, 5 μg/mL, 48 h", "value": "significant effect on promoting apoptosis"}, {"measurement": "early apoptosis", "setting": "[11]; ES-2, 20 μg/mL, 48 h", "value": 67.6, "unit": "%"}, {"measurement": "apoptosis", "setting": "[11]; ES-2, concentrations higher than 20 μg/mL, 48 h", "value": "almost all cells are completely apoptotic"}, {"measurement": "effect on normal cell apoptosis", "setting": "[12]", "value": "basically no effect"}, {"measurement": "inhibition of cell proliferation", "setting": "[13]", "value": "obvious inhibitory effect"}, {"measurement": "inhibition of cell proliferation", "setting": "[14]", "value": "obvious inhibitory effect"}]}
{"compound": "C[C@H]1O[C@H](O[C@H]2[C@H](O)[C@@H](O)[C@@H](O)[C@H](O)[C@@H]2O)[C@@H](N)C[C@@H]1NC(=N)C(=O)O", "note": "[Kasugamycin]", "values": [{"measurement": "polysome profile (OD260 nm peaks of 40S, 60S, 1× and polysomes)", "setting": "ribosomes", "value": "peaks of 40S and 60S dominate"}, {"measurement": "cell proliferation", "setting": "[15]", "value": "slows down significantly from day 4"}, {"measurement": "change in tumor diameter", "setting": "H1299 lung cancer cells", "value": "tumor shrink significantly"}]}
{"compound": "C[C@H]1C[C@@]2(O[C@H]3C[C@H]4[C@@H]5CC[C@H]6C[C@H](O)CC[C@]6(C)[C@H]5[C@@H](O)C[C@]4(C)[C@H]3[C@@]2(C)O)OC1(C)C", "note": "[Hippuristanol]", "values": [{"measurement": "polysome profile (OD260 nm peaks of 40S, 60S, 1× and polysomes)", "setting": "ribosomes", "value": "peaks of 40S and 60S dominate"}, {"measurement": "cell migration", "setting": "[16]", "value": "effectively reduce"}, {"measurement": "cell invasion", "setting": "[17]", "value": "effectively reduce"}, {"measurement": "change in tumor diameter", "setting": "A549 lung cancer cells", "value": "tumor shrink significantly"}]}
{"compound": "COC(=O)C[C@](O)(CCC(C)(C)O)C(=O)O[C@@H]1C(OC)=C[C@]23CCCN2CCc2cc4c(cc2[C@H]13)OCO4", "note": "[Harringtonin]", "values": [{"measurement": "polysome profile (OD260 nm peaks of 40S, 60S, 1× and polysomes)", "setting": "ribosomes", "value": "peak of 1× ribosomes is very high"}]}
{"compound": "O=C(O)C1=CC(=C(c2ccc(O)c(C(=O)O)c2)c2ccc(O)c(C(=O)O)c2)C=CC1=O", "note": "[aurintricarboxylic acid]", "values": [{"measurement": "onset concentration (apoptosis)", "setting": "[18]", "value": "0.25 to 0.5", "unit": "mg/mL"}]}
{"compound": "CC(/C=C/C(C)=C/[C@@H]1Cc2nc(cs2)[C@@H](C)C[C@@H](N)CC(=O)O[C@@H](C)C/C(C)=C/C=C\\C(=O)O1)=C\\CN(C)C", "note": "[Pateamine A]", "values": [{"measurement": "polysome profile (OD260 nm peaks of 40S, 60S, 1× and polysomes)", "setting": "ribosomes", "value": "peaks of 40S and 60S dominate"}]}
{"compound": "N.N.[Cl][Pt][Cl]", "note": "[cisplatin]", "values": [{"measurement": "inhibition of lung cancer A549 cells", "setting": "lung cancer A549 cells", "value": "80-90%"}]}
